Measurements reported in ChEMBL document CHEMBL1201862, “PubChem BioAssay data set” (2004).
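1) Cells in 96-well plates. 2) Compound, 48 h, 5 concentrations. 3) Linear interpolation between surrounding doses. 4) Unreached endpoint = highest concentration. Here, GI50 denotes the concentration required for 50% inhibition of growth.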 The source made the active and inactive calls. Rule as the data show it: active = GI50 up to about 1.1 µM and inactive = higher.

How the values were obtained:
Assay in all cases: NCI anticancer screen, dose series, 48 h
DLD-1 = system: DLD-1
DMS-273 = system: DMS-273
HOP-18 = system: HOP-18
KM-20L2 = system: KM-20L2
LXFL 529 = system: LXFL 529
M19-MEL = system: M19-MEL
SNB-78 = system: SNB-78
XF498 = system: XF498
RXF 631 = system: RXF 631

Measured: GI50

COC1=C(C)C(=O)c2c(cc3c(c2O)C(C)(CCC=C(C)C)C(C)O3)C1=O (stereo not drawn)
inactive: DLD-1 > 100 µM | DMS-273 > 57.1 µM | HOP-18 > 48.2 µM | KM-20L2 > 100 µM | LXFL 529 > 100 µM | M19-MEL 10.1 µM | SNB-78 > 100 µM | XF498 > 100 µM

N=C(c1ccccc1)N1CCCCC1
inactive: DLD-1 > 100 µM | DMS-273 > 100 µM | HOP-18 > 100 µM | KM-20L2 > 100 µM | LXFL 529 > 100 µM | M19-MEL > 100 µM | SNB-78 > 100 µM

COc1ccc(O)cc1C=O
inactive: DLD-1 > 100 µM | DMS-273 87.9 µM | HOP-18 > 100 µM | KM-20L2 > 100 µM | LXFL 529 77.1 µM | M19-MEL 77.1 µM | RXF 631 > 100 µM | SNB-78 > 100 µM | XF498 99.1 µM

CCCCCC/C=C1\CCC(CN2CCCC2)C1=O (stereo not drawn)
inactive: DLD-1 5.21 µM | DMS-273 12.7 µM | HOP-18 18.7 µM | KM-20L2 20.5 µM | LXFL 529 3.85 µM | M19-MEL 11.4 µM | RXF 631 20.1 µM | SNB-78 26 µM | XF498 17.4 µM

O=C1c2c(c3c4ccccc4[nH]c3c3[nH]c4ccccc4c23)C(=O)N1Cc1ccccc1
inactive: DLD-1 3.64 µM | DMS-273 2.74 µM | KM-20L2 2.94 µM | LXFL 529 3.44 µM | M19-MEL 3.64 µM | RXF 631 2.32 µM | SNB-78 3.06 µM | XF498 2 µM

CC1(C)C2CCC13C(=O)C1OC3(C2)C2C(=O)N(c3ccccc3)C(=O)C12 (stereo not drawn)
inactive: DMS-273 > 100 µM | HOP-18 > 100 µM | KM-20L2 > 100 µM | LXFL 529 > 100 µM | RXF 631 > 100 µM | SNB-78 > 100 µM

Cn1ncnc1CCc1ccccc1
inactive: DMS-273 > 100 µM | HOP-18 > 100 µM | KM-20L2 > 100 µM | LXFL 529 > 100 µM | M19-MEL > 100 µM | SNB-78 > 100 µM

C[C@@H]1C[C@]2(C[C@@H](C)C3[C@@H](CC4(C)[C@@H]5CCC6C(C)(C)OC(=O)C=C[C@]67C[C@@]5(CC[C@]34C)OO7)O2)OC1=O (stereo partly drawn)
inactive: DLD-1 52.7 µM | DMS-273 > 100 µM | HOP-18 > 100 µM | LXFL 529 31.6 µM | SNB-78 52.5 µM | XF498 17.6 µM

CC(C)(C)c1ccccc1NS(=O)(=O)c1ccccc1
inactive: DMS-273 > 100 µM | KM-20L2 94 µM | LXFL 529 > 100 µM | M19-MEL > 100 µM | RXF 631 > 100 µM | SNB-78 > 100 µM | XF498 > 100 µM

NS(=O)(=O)c1ccc(NC(=O)c2cccn3c(=O)c4ccccc4nc23)cc1
inactive: DLD-1 > 100 µM | HOP-18 > 100 µM | KM-20L2 > 100 µM | LXFL 529 > 100 µM | M19-MEL > 100 µM | RXF 631 > 100 µM | SNB-78 > 100 µM | XF498 > 100 µM

CN(C)c1nnnn1-c1c(N)n(C)c(=O)n(C)c1=O
inactive: DLD-1 > 100 µM | DMS-273 > 100 µM | HOP-18 > 100 µM | KM-20L2 > 100 µM | LXFL 529 > 100 µM | M19-MEL > 100 µM | RXF 631 > 100 µM | SNB-78 > 100 µM | XF498 > 100 µM

CN(C)c1ccc(/C=C(\C#N)C(=O)c2ccccc2)cc1Br
inactive: DLD-1 67.5 µM | DMS-273 > 100 µM | HOP-18 > 100 µM | KM-20L2 > 100 µM | LXFL 529 > 100 µM | RXF 631 > 100 µM | SNB-78 > 100 µM | XF498 > 100 µM

COC(=O)C(=O)C(C(=O)C=C(C)C)C(=O)C(=O)Nc1ccc(Cl)cc1C (stereo not drawn)
inactive: DLD-1 > 100 µM | DMS-273 35.6 µM | HOP-18 > 100 µM | KM-20L2 > 100 µM | LXFL 529 > 100 µM | M19-MEL > 100 µM | RXF 631 > 100 µM

N#CCCN(CCC#N)c1ccc(/C=C2\N=C(COc3ccc(Cl)cc3Cl)OC2=O)cc1
inactive: DLD-1 > 100 µM | DMS-273 > 100 µM | KM-20L2 > 100 µM | LXFL 529 > 100 µM | M19-MEL > 100 µM | RXF 631 > 100 µM | SNB-78 > 100 µM | XF498 > 100 µM

C/C=C(/CCC1NCCC2c3ccccc3NC12)[Si](C)(C)C (stereo not drawn)
inactive: DLD-1 5.16 µM | DMS-273 8.55 µM | HOP-18 13.7 µM | KM-20L2 4.62 µM | LXFL 529 3.65 µM | M19-MEL 12 µM | RXF 631 10.4 µM | SNB-78 11.6 µM | XF498 3.15 µM

N/N=C1\c2ccccc2C2/C(=N\N)c3ccccc3C12 (stereo not drawn)
inactive: DLD-1 > 100 µM | DMS-273 > 100 µM | HOP-18 57.4 µM | KM-20L2 > 100 µM | LXFL 529 > 100 µM | M19-MEL > 100 µM

COc1cc(Nc2cnc3ccc(N)cc3n2)cc(OC)c1OC
inactive: DMS-273 > 85.3 µM | HOP-18 39.4 µM | KM-20L2 56.6 µM | LXFL 529 56.5 µM | M19-MEL > 84.1 µM | RXF 631 > 100 µM | SNB-78 > 100 µM | XF498 11 µM

COC(=O)CC[C@]12C[C@]13CC[C@]1(C)C4C(C)C[C@]5(CC(C)C(=O)O5)OC4CC1(C)C3CCC2C(C)(C)O (stereo partly drawn)
inactive: DLD-1 51.8 µM | DMS-273 32.7 µM | HOP-18 > 100 µM | KM-20L2 > 100 µM | LXFL 529 55.2 µM | M19-MEL 48 µM | SNB-78 89.9 µM | XF498 58.6 µM

O=C(CCN1CCCCC1CCO)Nc1ccc2c(c1)C(=O)c1ccc(NC(=O)CCN3CCCCC3CCO)cc1C2=O (stereo not drawn)
inactive: DLD-1 2.19 µM | DMS-273 2.83 µM | HOP-18 2.25 µM | KM-20L2 20.1 µM | LXFL 529 2.32 µM | M19-MEL 26.4 µM | SNB-78 3.2 µM

O=C1[C@H]2ON(c3ccccc3)C(c3ccccc3Cl)[C@H]2C(=O)N1c1ccc(Cc2ccc(N3C(=O)[C@@H]4ON(c5ccccc5)C(c5ccccc5Cl)[C@@H]4C3=O)cc2)cc1 (stereo partly drawn)
inactive: DLD-1 > 100 µM | DMS-273 > 100 µM | HOP-18 > 100 µM | KM-20L2 > 100 µM | LXFL 529 > 100 µM | M19-MEL > 100 µM | SNB-78 > 100 µM

Oc1c2c(nc3cc4c(cc13)OCO4)-c1ccccc1CC2
inactive: DLD-1 > 100 µM | DMS-273 > 100 µM | KM-20L2 > 100 µM | LXFL 529 > 100 µM | M19-MEL > 100 µM | RXF 631 > 100 µM | XF498 > 100 µM

COc1ccc(C2S/C(=C\c3cccc(O)c3)C(=O)N2NC(=O)Cc2ccccc2)cc1 (stereo not drawn)
inactive: DLD-1 > 100 µM | DMS-273 > 100 µM | HOP-18 > 100 µM | LXFL 529 > 100 µM | M19-MEL > 100 µM
